Laboratory results: patent US20030096264A1, “Multi-parameter high throughput screening assays (MPHTS)” (Psychiatric Genomics, Inc., priority 2001, published 2003)

Test system: rat (rattus norvegicus) neuronal cells
Experiment: Microarray expression profile of primary rat cortical neurons incubated with valproate
Assay type: cell-based
Details: 0.5 mM valproate, 3 days
Excerpt: This example describes experiments, which analyzed changes in the expression profile for rat (rattus norvegicus) neuronal cells induced by valproate, a drug used clinically to treat neuropsychiatric disorders such as bipolar disorder. […] Expression profiles for these genes are compared to expression profiles for orthologous genes in human schizophrenia patients.
Primary neuron cells were isolated from E19 rat embryos and cultured as follows. First, the cortex was dissected from each embryo and placed in HBSS solution. The HBSS solution was subsequently removed and replaced with 5 ml papain solution at a concentration of 10 units per ml. The cortex was then incubated in the papain solution for 10 minutes and at 37° C. After incubation, the Papain solution was removed and 10% NuSerum media (Becton Dickinson, Bedford Mass.) was added in its place. The cortex was then centrifuged at 1000 rpm for 10 minutes, after which time the solution was removed and 1 ml of media containing 0.1% DNase was added. Cells were titurated immediately to break up the tissue. The volume of the cell suspensions was brought up to 15 ml and the cells were counted.
Approximately 4×10^6 cells were plated per 10 cm dish, in NeuroBasal A (Invitrogen Corp., Carlsbad Calif.) medium containing B27 and insulin (25 μg/ml). The cell cultures were incubated in a humidified incubator with 5% CO2 and at 37° C. The culture media were changed every 2 days. Cells were incubated in 0.5 mM valproate for 3 days. Control cultures were also prepared and incubated under the same conditions (including the carrier DMSO) but without valproate.
mRNA was extracted from each group of cultures and expression profiles were measured on microarrays according to standard techniques (see the Detailed Description section, infra). Data from duplicate microarrays was statistically evaluated to identify genes that are differentially expressed in the presence of valproate, relative to expression levels in the absence of valproate.
Table 1, below, lists the twelve genes identified in these experiments as being differentially expressed in the presence of valproate, relative to its expression level in the absence of valproate. These genes were identified using a Rat Toxicology array from Incyte (Palo Alto, Calif.). Each gene is listed in Table 1 by its common or popular name, along with the GenBank Accession and Gene Identification (GI) numbers of the rat gene whose expression level was evaluated in these experiments. The “expression ratio” measured for each gene is also specified. Specifically, the expression ratio, Φ, was calculated using the formula: [formula]
where Ev is the expression level measured in cells incubated with valproate and Eo is the expression level in the absence of valproate.

CCCC(CCC)C(=O)O [valproate]
expression ratio Φ: myelin-associated glycoprotein (MAG) (vs no valproate, M22357 SEQ ID NO: 1): 2.16 | expression ratio Φ: calmodulin (AF178845 SEQ ID NO: 5): −1.95 | expression ratio Φ: SCG10 (AY004290 SEQ ID NO: 4): −1.43 | expression ratio Φ: selenoprotein P (D25221 SEQ ID NO: 11): 1.51 | expression ratio Φ: plasma membrane calcium ATPase (J03753 SEQ ID NO: 12): −1.36 | expression ratio Φ: GAP-43 (L21191 SEQ ID NO: 3): −1.88 | expression ratio Φ: 2′,3′-cyclic nucleotide-3′ phosphodiesterase (CNPI) (M18630 SEQ ID NO: 2): 1.92 | expression ratio Φ: calcineurin A (M29275 SEQ ID NO: 6): −1.43 | expression ratio Φ: kinesin light chain C (M75148 SEQ ID NO: 8): −1.53 | expression ratio Φ: hypoxanthine-guanine phosphoribosyltransferase (M86443 SEQ ID NO: 10): −1.37 | expression ratio Φ: cysteine-rich protein (U09567 SEQ ID NO: 9): 1.49 | expression ratio Φ: protein kinase C-binding protein NELL2 (U48245 SEQ ID NO: 7): −1.7
